# Measurements: patent US20130266636A1, “METHODS FOR BLOCKING CELL PROLIFERATION AND TREATING DISEASES AND CONDITIONS RESPONSIVE TO CELL GROWTH INHIBITION” (THE REGENTS OF THE UNIVERSITY OF CALIFORNIA, priority 2010, published 2013)
# Assays:
# Assay in all cases: NCI-60 panel growth inhibition
# Assay type in all cases: cell-based
# 786-0 = details: Homo sapiens, Renal Cancer, mutated RAS No, mutated BRAF No
# Excerpt: (§1) Table 1 summarizes KG5's effect in 60 NCI cancer cell lines: the NCI-60 panel showing the half maximal growth inhibitory concentration of KG5 and the RAS and BRAF status in 60 human cancer cell lines.
# A498 = details: Homo sapiens, Renal Cancer, mutated RAS No, mutated BRAF No
# Excerpt: as §1
# A549/ATCC = details: Homo sapiens, NSC Lung Cancer, mutated RAS Yes, mutated BRAF No
# Excerpt: as §1
# ACHN = details: Homo sapiens, Renal Cancer, mutated RAS No, mutated BRAF No
# Excerpt: as §1
# BT-549 = details: Homo sapiens, Breast Cancer, mutated RAS No, mutated BRAF No
# Excerpt: as §1
# CAKI-1 = details: Homo sapiens, Renal Cancer, mutated RAS No, mutated BRAF No
# Excerpt: as §1
# CCRF-CEM = details: Homo sapiens, Leukemia, mutated RAS Yes, mutated BRAF No
# Excerpt: as §1
# COLO 205 = details: Homo sapiens, Colon Cancer, mutated RAS Yes, mutated BRAF No
# Excerpt: as §1
# EKVX = details: Homo sapiens, NSC Lung Cancer, mutated RAS No, mutated BRAF No
# Excerpt: as §1
# HCC-2998 = details: Homo sapiens, Colon Cancer, mutated RAS No, mutated BRAF No
# Excerpt: as §1
# HCT-116 = details: Homo sapiens, Colon Cancer, mutated RAS Yes
# Excerpt: as §1
# HCT-15 = details: Homo sapiens, Colon Cancer, mutated RAS Yes, mutated BRAF Yes
# Excerpt: as §1
# HL-60(TB) = details: Homo sapiens, Leukemia, mutated RAS Yes, mutated BRAF No
# Excerpt: as §1
# HS 578T = details: Homo sapiens, Breast Cancer, mutated RAS Yes, mutated BRAF No
# Excerpt: as §1
# IGROV1 = details: Homo sapiens, IGROV-1; Ovarian Cancer; mutated RAS No; mutated BRAF No
# Excerpt: as §1
# KM12 = details: Homo sapiens, Colon Cancer, mutated RAS No, mutated BRAF No
# Excerpt: as §1
# LOX IMVI = details: Homo sapiens, Melanoma, mutated RAS No, mutated BRAF Yes
# Excerpt: as §1
# MCF7 = details: Homo sapiens, Breast Cancer, mutated RAS No, mutated BRAF No
# Excerpt: as §1
# MDA-MB-231/ATCC = details: Homo sapiens, Breast Cancer, mutated RAS Yes, mutated BRAF Yes
# Excerpt: as §1
# MDA-MB-468 = details: Homo sapiens, Breast Cancer, mutated RAS No, mutated BRAF No
# Excerpt: as §1
# MOLT-4 = details: Homo sapiens, Leukemia, mutated RAS Yes, mutated BRAF No
# Excerpt: as §1
# NCI-H226 = details: Homo sapiens, NSC Lung Cancer, mutated RAS No, mutated BRAF No
# Excerpt: as §1
# NCI-H23 = details: Homo sapiens, NSC Lung Cancer, mutated RAS Yes, mutated BRAF No
# Excerpt: as §1
# NCI-H322M = details: Homo sapiens, NSC Lung Cancer, mutated RAS No, mutated BRAF No
# Excerpt: as §1
# NCI-H460 = details: Homo sapiens, NSC Lung Cancer, mutated RAS Yes, mutated BRAF No
# Excerpt: as §1
# OVCAR-3 = details: Homo sapiens, Ovarian Cancer, mutated RAS No, mutated BRAF No
# Excerpt: as §1
# OVCAR-4 = details: Homo sapiens, Ovarian Cancer, mutated RAS No, mutated BRAF No
# Excerpt: as §1
# OVCAR-5 = details: Homo sapiens, Ovarian Cancer, mutated RAS Yes, mutated BRAF No
# Excerpt: as §1
# OVCAR-8 = details: Homo sapiens, Ovarian Cancer, mutated RAS No, mutated BRAF No
# Excerpt: as §1
# PC-3 = details: Homo sapiens, Prostate Cancer, mutated RAS No, mutated BRAF No
# Excerpt: as §1
# SF-268 = details: Homo sapiens, CNS Cancer, mutated RAS No, mutated BRAF No
# Excerpt: as §1
# SF-295 = details: Homo sapiens, CNS Cancer, mutated RAS No, mutated BRAF No
# Excerpt: as §1
# SF-539 = details: Homo sapiens, CNS Cancer, mutated RAS No, mutated BRAF No
# Excerpt: as §1
# SK-MEL-28 = details: Homo sapiens, Melanoma, mutated RAS No, mutated BRAF Yes
# Excerpt: as §1
# SK-MEL-5 = details: Homo sapiens, Melanoma, mutated RAS No, mutated BRAF Yes
# Excerpt: as §1
# SK-OV-3 = details: Homo sapiens, Ovarian Cancer, mutated RAS No, mutated BRAF No
# Excerpt: as §1
# SN12C = details: Homo sapiens, Renal Cancer, mutated RAS No, mutated BRAF No
# Excerpt: as §1
# SNB-75 = details: Homo sapiens, CNS Cancer, mutated RAS No, mutated BRAF No
# Excerpt: as §1
# SR = details: Homo sapiens, Leukemia, mutated RAS No, mutated BRAF No
# Excerpt: as §1
# SW-620 = details: Homo sapiens, Colon Cancer, mutated RAS No, mutated BRAF No
# Excerpt: as §1
# U251 = details: Homo sapiens, U-251; CNS Cancer; mutated RAS No; mutated BRAF No
# Excerpt: as §1
# UO-31 = details: Homo sapiens, Renal Cancer, mutated RAS No, mutated BRAF No
# Excerpt: as §1
structure (smiles),measurement,setting,value
CSc1nc(N)cc(Oc2ccc(-c3nnc(Nc4cccc(C(F)(F)F)c4)[nH]3)cc2)n1 [KG5],GI50,786-0,490 nM
same,GI50,A498,468 nM
same,GI50,A549/ATCC,501 nM
same,GI50,ACHN,851 nM
same,GI50,BT-549,708 nM
same,GI50,CAKI-1,417 nM
same,GI50,CCRF-CEM,380 nM
same,GI50,COLO 205,407 nM
same,GI50,EKVX,501 nM
same,GI50,HCC-2998,1410 nM
same,GI50,HCT-116,457 nM
same,GI50,HCT-15,490 nM
same,GI50,HL-60(TB),407 nM
same,GI50,HS 578T,437 nM
same,GI50,IGROV1,447 nM
same,GI50,KM12,468 nM
same,GI50,LOX IMVI,851 nM
same,GI50,MCF7,355 nM
same,GI50,MDA-MB-231/ATCC,1480 nM
same,GI50,MDA-MB-468,191 nM
same,GI50,MOLT-4,912 nM
same,GI50,NCI-H226,1780 nM
same,GI50,NCI-H23,525 nM
same,GI50,NCI-H322M,525 nM
same,GI50,NCI-H460,363 nM
same,GI50,OVCAR-3,251 nM
same,GI50,OVCAR-4,575 nM
same,GI50,OVCAR-5,1550 nM
same,GI50,OVCAR-8,479 nM
same,GI50,PC-3,282 nM
same,GI50,SF-268,912 nM
same,GI50,SF-295,427 nM
same,GI50,SF-539,347 nM
same,GI50,SK-MEL-28,1580 nM
same,GI50,SK-MEL-5,389 nM
same,GI50,SK-OV-3,562 nM
same,GI50,SN12C,912 nM
same,GI50,SNB-75,245 nM
same,GI50,SR,398 nM
same,GI50,SW-620,617 nM
same,GI50,U251,468 nM
same,GI50,UO-31,513 nM
